Measurements as given in patent US8012748B2, “Peripheral nervous system specific sodium channel nucleic acids” (The Research Foundation of State University of New York, priority 1994, dated 2011).

Columns and labels:
[1] = biological target: DRG sodium channel; conditions: cited from earlier work
[2] = biological target: T1, PNS SCP (PN1 sodium channel) in PK1-4 cells (Rattus norvegicus, UniProt O08562); assay: (14C) guanidinium flux assay in cells expressing a PNS SCP; type: cell-based
T1 construct: PKI-4 cells express a PNS SCP(PN1) without NGF treatment; endogenous in cells
T1 sequence (O08562 whole entry): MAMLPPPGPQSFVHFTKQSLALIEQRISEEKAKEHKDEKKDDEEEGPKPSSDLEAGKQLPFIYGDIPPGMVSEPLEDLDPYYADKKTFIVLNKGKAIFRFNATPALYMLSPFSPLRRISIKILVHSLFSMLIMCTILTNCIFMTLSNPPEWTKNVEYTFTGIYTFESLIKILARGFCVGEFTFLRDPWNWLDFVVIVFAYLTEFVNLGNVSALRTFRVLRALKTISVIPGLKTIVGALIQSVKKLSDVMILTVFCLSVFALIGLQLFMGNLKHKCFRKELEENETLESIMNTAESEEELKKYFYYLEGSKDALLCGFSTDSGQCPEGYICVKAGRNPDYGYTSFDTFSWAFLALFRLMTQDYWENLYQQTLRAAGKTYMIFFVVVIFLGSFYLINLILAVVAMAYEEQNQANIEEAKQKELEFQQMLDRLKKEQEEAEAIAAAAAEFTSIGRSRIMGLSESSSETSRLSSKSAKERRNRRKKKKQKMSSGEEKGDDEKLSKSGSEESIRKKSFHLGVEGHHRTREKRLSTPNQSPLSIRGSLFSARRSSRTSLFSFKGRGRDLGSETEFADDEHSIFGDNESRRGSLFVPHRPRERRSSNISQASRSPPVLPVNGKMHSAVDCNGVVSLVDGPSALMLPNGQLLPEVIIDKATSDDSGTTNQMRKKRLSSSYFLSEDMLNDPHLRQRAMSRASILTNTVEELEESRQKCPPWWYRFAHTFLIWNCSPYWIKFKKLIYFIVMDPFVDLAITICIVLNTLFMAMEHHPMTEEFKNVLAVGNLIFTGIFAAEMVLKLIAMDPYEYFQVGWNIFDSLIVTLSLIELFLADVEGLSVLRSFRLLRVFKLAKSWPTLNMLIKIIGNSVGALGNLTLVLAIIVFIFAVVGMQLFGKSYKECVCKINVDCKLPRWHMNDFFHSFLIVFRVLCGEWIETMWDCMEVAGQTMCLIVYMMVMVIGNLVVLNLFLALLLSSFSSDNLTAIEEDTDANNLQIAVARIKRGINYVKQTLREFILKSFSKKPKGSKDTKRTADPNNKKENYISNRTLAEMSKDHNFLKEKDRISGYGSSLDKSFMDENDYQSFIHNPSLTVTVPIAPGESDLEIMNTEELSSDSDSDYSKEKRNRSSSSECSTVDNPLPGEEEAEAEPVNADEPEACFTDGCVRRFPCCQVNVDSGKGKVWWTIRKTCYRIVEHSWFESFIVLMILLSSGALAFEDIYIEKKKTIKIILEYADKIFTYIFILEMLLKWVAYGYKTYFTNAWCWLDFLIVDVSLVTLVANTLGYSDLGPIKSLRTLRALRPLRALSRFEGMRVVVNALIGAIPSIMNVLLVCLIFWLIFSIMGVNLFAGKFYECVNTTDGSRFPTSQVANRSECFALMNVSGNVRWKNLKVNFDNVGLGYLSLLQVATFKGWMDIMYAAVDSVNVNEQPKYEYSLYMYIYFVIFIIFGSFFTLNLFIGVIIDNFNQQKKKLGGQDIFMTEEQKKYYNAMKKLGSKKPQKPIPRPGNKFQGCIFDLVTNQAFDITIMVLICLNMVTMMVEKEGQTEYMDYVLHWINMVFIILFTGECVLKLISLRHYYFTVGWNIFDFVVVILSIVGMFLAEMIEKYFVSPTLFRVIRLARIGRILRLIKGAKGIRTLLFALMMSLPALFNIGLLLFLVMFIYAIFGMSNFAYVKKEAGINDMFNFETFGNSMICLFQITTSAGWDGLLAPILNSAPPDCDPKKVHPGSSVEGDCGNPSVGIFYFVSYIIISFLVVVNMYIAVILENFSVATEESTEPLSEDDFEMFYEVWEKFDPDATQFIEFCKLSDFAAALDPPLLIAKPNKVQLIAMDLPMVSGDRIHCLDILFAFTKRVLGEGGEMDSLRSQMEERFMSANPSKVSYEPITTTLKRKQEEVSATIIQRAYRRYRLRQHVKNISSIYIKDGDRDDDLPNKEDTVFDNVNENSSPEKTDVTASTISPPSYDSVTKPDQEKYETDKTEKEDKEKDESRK

SMILES | kD for TTX of the DRG channel relative to the kD of sodium channels in skeletal muscle or heart [1] | inhibition of sodium channel activity of at least one PNS SCP ([2]; cell lines expressing at least one PNS SCP (PC12, PK1-4 and other isolated or recombinant cells)) | IC50 ([2]; guanidinium flux assay, PK1-4 cells, read-out: for inhibition of sodium channel activity (converted)) [nM]
NC1=N[C@H](O)[C@H]2[C@H]3O[C@]4(O)O[C@@H]([C@@H](O)[C@@]2(N1)[C@@H]4O)[C@]3(O)CO [TTX, tetrodotoxin] | approximately tenfold higher | – | –
Cc1cccc(C)c1NC(=O)CN1CCN(CCCC(c2ccc(F)cc2)c2ccc(F)cc2)CC1 [lidoflazine] | – | found to inhibit sodium channel activity | 309
